Test results published in patent US20030228627A1, “Assay for p53 function in cells” (priority 2002, published 2003).

Assays:
p21 promoter [1] = assay: Chromatin immunoprecipitation (ChIP) in U2OS cells after DNA damage, p21 promoter; type: cell-based, human
Source text: To address this issue, a chromatin immunoprecipitation (ChIPs) technique was used to examine the temporal order of interaction of a variety of transcription proteins to individual p53-responsive promoters that control cell cycle arrest and apoptosis before and after DNA damage by two different damaging agents. […] For example, before damage the p21 promoter is already poised for transcription by containing bound RNA polymerase II, TATA binding protein (TBP), TFIIB, and TFIIH.
U2OS cells were grown to 50-60% confluency and treated either with UV-C or doxorubicin, (constant presence in media) for various times before crosslinking. After aspirating the media and washing with phosphate-buffered saline (PBS), cells were crosslinked with a 1% formaldehyde solution in 1×PBS for 15 min at room temperature. Crosslinking was stopped by addition of glycine to 125 mM final concentration. Monolayers were washed twice with cold PBS and harvested in radioimmunoprecipitation assay (RIPA) buffer [150 mM NaCl, 1% v/v Nonidet P-40, 0.5% w/v deoxycholate, 0.1% w/v SDS, 50 mM Tris pH 8, 5 mM EDTA, protease inhibitor cocktail, phosphatase inhibitors (20 mM NaF/0.2 mM sodium orthovanadate), deacetylase inhibitors (5 μM trichostatin A/5 mM sodium butyrate) and 0.5 mM PMSF] to generate a suspension of 10 million cells/ml. Suspensions were sonicated to generate DNA fragments below 500 bp and clarified by centrifugation for 10 min at 12000 g. Protein solutions were quantified for protein and DNA content and adjusted to 1 mg/ml of protein.
For immunoprecipitation, 1 mg of protein extract was pre-cleared for 2 hrs with 40 μl of a 50% slurry of 50:50 proteinA:proteinG sepharose before addition of indicated antibodies. Antibody (Ab) sources: DO1 (anti-total p53, Oncogene), S15P (anti-Serine 15-phospho-p53, Cell Signaling), AcH4 (Upstate), anti-TAF250 (R. Tjian), anti-TFIIB, -TBP, -RNApol II, -TFIIH (Santa Cruz), anti-serine 2-phospho-RNApol II and anti-serine 5-phospho-RNApol II (Covance). […]
DNA was precipitated and used as template in semi-quantitative PCR reactions. […]

[2] = system: chromatin-assembled p21 promoter; assay: In vitro transcription of the chromatin-assembled p21-LUC template with HeLa cell nuclear extract; type: biochemical, human
Method: The p21-LUC chromatin template was subjected to in vitro transcription reactions using HeLa cell nuclear extracts as a source of basal initiation components in the presence or absence of p53 and/or p300, as described in the protocol depicted in FIG. 1B. Both factors were added after chromatin assembly was complete (“post assembly”) and incubated with the template prior to in vitro transcription. Addition of p53 alone produced very modest transcriptional activation. […] Neither p53 nor p300 appreciably influenced transcription of naked DNA templates. Identical results were obtained using extracts from another cell line, erythroid K562. Thus, transcriptional activation from the chromatin-assembled p21 promoter in vitro requires p53, acting at a distance of at least 1.38 kb, in combination with a histone acetyl transferase cofactor, p300.
Chromatin was reconstituted using Drosophila embryonic extracts as described (Bulger, M. and Kadonaga, J. 1994 Methods Mol Genet 5:242-262). After assembly, the chromatin template (500 ng of DNA in 50 μl) was incubated with p53 and/or p300 (typically between 0.2-10 pmol of p53 and 0.2-0.5 pmol of p300), for 30 min at 27° C. For transcription, 20 μl of HeLa cell nuclear extract (typically 8 mg/ml) was added and incubated on ice for 10 min, then reactions proceeded as described (Kadam, S. et al. 2000 Genes & Dev 14:2441-2451). The purified RNA was analyzed by primer extension analysis with primers specific to luciferase and -globin gene (used as an internal control) sequences.

[3] = system: chromatin-assembled p21 promoter; assay: In vitro chromatin immunoprecipitation with anti-acetyl-H4 antibodies; type: biochemical, human; conditions: p53 and p300
Method: To determine whether p53 influenced the localization of nucleosome acetylation on the p21 promoter by direct recruitment of p300, in vitro chromatin immunoprecipitation assays were performed. p21 promoters were assembled into chromatin using purified components and incubated with p53 and/or p300. Chromatin was digested with micrococcal nuclease and acetylated oligonucleosomes were immunoprecipitated using anti-acetyl-H4 antibodies. Specific p21 plasmid sequences in the immunoprecipitates were detected by PCR amplification or Southern blot. Identical results were obtained from both assays. […] The extent of increased acetylation in different regions of the p21-LUC plasmid varied from 3.4-fold near the 3′ p53 binding site to 1.4-fold in a distal region located 2 kb downstream of the proximal promoter. […] The following decreasing levels of acetylation were found: 3′ site>TATA box=5′ site>>+2 kb.
Chromatin immunoprecipitation analysis was performed using the anti-acetylated histone H4 antibody (Upstate Biotechnology) according to the manufacturer's recommendations and as previously described (Kundu, T. K. et al. 2000 Mol Cell 6:551-561) with some minor modifications, and as described in Example 2 (see below).

[4] = system: nucleosomal histones of the chromatin-assembled p21 promoter; assay: Chromatin HAT assay (3H-acetyl CoA incorporation); type: biochemical
Method: The quality of p21 promoter chromatin assembled in this purified system was determined by micrococcal nuclease digestion, as for embryo extracts, with similar results. The templates were then incubated with p53 and/or p300 in the presence of ^3H-acetyl CoA and the extent of acetylation monitored by incorporation of radioactivity when analyzed by SDS-PAGE and fluorography. […] A control reaction with equivalent amounts of free histones and p300 was included. Acetylation of p53 and autoacetylation of p300 was also detected.
Chromatin assembly was performed with recombinant dACF complex and NAP-1 histone chaperone as described (Ito, T. et al. 1999 Genes & Dev 13:1529-1539 and references therein). Chromatin assembly was assessed by micrococcal nuclease digestion and transcriptional repression. After assembly, proteins were added to the chromatin mixtures in the presence of 5 μM ^3H-acetyl CoA (ICN). After incubation for 1 hr at 30° C. with p53 and/or p300, reactions were stopped by boiling in SDS-PAGE loading buffer and analyzed on a 15% SDS-PAGE gel. The gel was fixed and treated with fluorography enhancing solutions (NEN Life Science). The gel was then dried and exposed to autoradiography.

p21 promoter [5] = assay: DNase I footprinting of chromatin and DNA (p21-LUC plasmid); type: binding, human; conditions: DNase I footprinting on p21 promoter DNA or chromatin
Method: To analyze the mechanism by which p300 mediates p53-dependent activation, DNase I chromatin footprinting assays were performed to examine the occupancy of the 5′ and 3′ sites of the p21 promoter under conditions of transcriptional coactivation. Chromatin assembly and factor incubation steps were performed as described above, but the samples were split into three aliquots just before the in vitro transcription reaction. One aliquot was subjected to DNase I digestion, the second was transcribed, and the third was analyzed by Western blot to determine the acetylation status of p53.
DNA footprinting experiments were performed with chromatin-assembled p21 promoters after ATP depletion and purification by gel filtration using nonsaturating amounts of p53.
DNase I footprinting was done using three different templates: crude chromatin-assembled mixtures, CL4B-purified chromatin, and naked DNA. […] After incubation of the different templates with the proteins, samples were digested with 33 U/ml (crude chromatin), 1.5 U/ml (purified chromatin) or 0.1 U/ml (naked DNA) DNase I (Boehringer Mannheim) for 75 s at 25° C. Purified DNA fragments were analyzed by primer extension.

p21 promoter 5′ site = assay: Electrophoretic Mobility Shift Assay (EMSA) of p53 binding to DNA containing the 5′ site of the p21 promoter; parameters: species or system human; conditions: compared with the acetylated form of wild-type p53
Source text: Both probes were ^32P end-labeled using T4 polynucleotide kinase and further purified by 12%-15% polyacrylamide native gels.

COc1cccc2c1C(=O)c1c(O)c3c(c(O)c1C2=O)C[C@@](O)(C(=O)CO)C[C@@H]3O[C@H]1C[C@H](N)[C@H](O)[C@H](C)O1 [doxorubicin]
binding of phosphorylated p53 to the p21 promoter (p21 promoter [1]): significantly increased | recruitment of TAFII250 to the p21 promoter (p21 promoter [1]): no recruitment | recruitment of TFIIB to the p21 promoter (p21 promoter [1]): active recruitment

p53KR: mutant p53 in which lysines 370, 372, 373, 381, and 382 within the C-terminal domain were replaced by arginine
ability to activate transcription compared with wild-type p53 ([2]; with p300): coactivated by p300 to a similar extent as wild-type p53

p300: full-length human histidine-tagged p300, histone acetyl transferase cofactor, expressed in Sf9 cells
transcriptional activation of the chromatin template ([2]; coincubation with p53): strong synergistic de-repression | transcriptional activation of the chromatin template ([2]; p300 alone): unable to achieve such activation | extent of increased acetylation ([3]; distal region 2 kb downstream of the proximal promoter): 1.4 fold | extent of increased acetylation ([3]; near the 3′ p53 binding site): 3.4 fold | acetylation of nucleosomal histones ([4]; both p53 and p300 present): strong acetylation | acetylation of nucleosomal histones ([4]; p300 alone): very weak acetylation

p53ΔC30: C-terminal deleted form of p53, lacking the last 30 amino acid residues
binding to the 3′ site (p21 promoter [5]): no binding | binding to the 5′ site (p21 promoter [5]): weaker binding | binding activity in EMSA (p21 promoter 5′ site): strongly active
